Test results reported in patent US11286304B2, “Anti-galectin-7 antibody, kit comprising the same, and uses thereof” (Academia Sinica, priority 2018, dated 2022).

Tests used:
galectin-7 [1] = experiment: Galectin-7 protein in lung cancer cells (immunoblot); type: cell-based, human; conditions: for effect on fluvastatin-induced galectin-7 upregulation: co-administered with fluvastatin, 200 μM Mevalonate, 20 μM GGPP, 20 μM FPP
Method: (§1) CL83, CL141, CL100, CL25, PC9, PC9-IR, CL97, H1975, and H3255 cells were obtained from Dr. Pan-Chyr Yang (National Taiwan University, Taiwan), and A-431 (ATCC© CRL-1555™), H1650 ((ATCC© CRL-5883™)) and HCC827 ((ATCC© CRL-2868™)) cells were purchased from ATCC. Cells were cultured in RPMI 1640 medium supplemented with 10% fetal bovine serum (Gibco). The mRNA of A549, H23, H226BR, H358, H460, H661, H928, H1299, H1435, and H1437 cells were produced by conventional method, such as the method as described herein.
Lysates from different lung cancer cell samples were prepared and aliquots containing 30 μg of protein from each lysate were analyzed using either 10% or 12% sodium dodecyl sulfate-polyacrylamide gel electrophoresis (SDS-PAGE). A polyvinylidene difluoride Immobilon H-bond membrane (EMD Millipore) was used for immunoblot analysis. The primary antibody against galectin-7 (Novagen) was used.

IL-6 = IL-6 production by keratinocytes (ELISA); type: cell-based, human; conditions: for IL-6 production induced by IL-17A: galectin-7 knockdown keratinocytes, data not shown; for IL-6 production: HaCaT and HEKn cells subjected to immune stimuli, ELISA
Method: (§2) To measure the concentrations of proinflammatory cytokines secreted by keratinocytes, 2×10^4 cells were seeded in 96-well plates. Cells were incubated for 24 hours and then treated with 50 μg/ml LPS, 100 ng/ml human TNF-α, 100 or 200 ng/ml human IL-17A, 200 ng/ml human IL-22, 100 ng/ml human IL-23, or 50 ng/ml IFN-γ at 37° C. for 48 hours. In addition, the MEK inhibitor PD98059 was added along with stimulation by LPS or IL-17A (48 hours). The supernatants were then collected and analyzed by ELISAs, which were performed using a specific combination of paired antibodies (capture and detection antibodies).

IL-8 = IL-8 production by keratinocytes (ELISA); type: cell-based, human; conditions: for IL-8 production induced by IL-17A: galectin-7 knockdown keratinocytes, data not shown; for IL-8 production: HaCaT and HEKn cells subjected to immune stimuli, ELISA
Method: as §2

galectin-7 [2] = experiment: Galectin-7 expression in keratinocytes (real-time PCR, immunoblot); type: cell-based, human; conditions: for galectin-7 expression: keratinocytes, other statin drugs, data not shown; for galectin-7 protein expression: treated with cytokines for 2 days, immunoblot; for galectin-7 mRNA and protein expression: 24 hours, methylprednisolone 10.6 μM, tobramycin 8.6 μM, fluvastatin 9.2 μM, pempidine 13 μM
Method: Human keratinocyte cell line HaCaT was maintained at 37° C. in Dulbecco's modified Eagle's medium (DMEM) supplemented with 10% of fetal bovine serum (FBS), 2 mM glutamine, 100 U/ml penicillin and 100 μg/ml streptomycin. Short hairpin RNA (shRNA) reagents were obtained from the National RNAi Core Facility located at the Institute of Molecular Biology and Genomic Research Center, Academia Sinica, supported by the National Core Facility Program for Biotechnology Grants of NSC. Four shRNAs with clone IDs of TRCN0000057393, TRCN0000057394, TRCN0000057395, and TRCN0000057396 were used to generate stable galectin-7 knockdown HaCaT clones. HaCaT cells were infected with one of the four shRNA-expressing lentiviruses and puromycin was employed to select stable cell clones after 3 days of infection. After puromycin selection, four individual pooled clones were cultured in puromycin-free medium for 2 weeks before further analysis.
Primary neonatal human epithelial keratinocytes, HEKn cells, were purchased from Gibco. HEKn cells were cultured at 37° C. in keratinocyte serum-free medium (K-SFM) supplemented with 30 μg/ml bovine pituitary extract and 5 ng/ml recombinant human epidermal growth factor from the same company. Compared with HaCaT cells, HEKn cells have a limited proliferation ability and are not suitable for establishing shRNA-based stable knockdown cells; therefore, a small interfering RNA (siRNA) oligo was used to transiently knock down the expression of galectin-7. The Silencer® Select siRNAs were purchased from Invitrogen, including negative control #1 and a predesigned siRNA targeting human galectin-7 (Catalog number: s230574, which targets the sequence of exon 3 of NM_002307.3). Thirty picomoles of siRNAs were delivered into HEKn cells in a 6-well plate setup by means of Lipofectamine 2000.
Cells were harvested and lysed in RIPA lysis buffer containing 1% of Triton X-100 and a protease inhibitor cocktail, and total protein concentrations were measured with a protein assay kit. Proteins in the samples of the lysates with the same amounts of total protein were separated by sodium dodecyl sulfate polyacrylamide gel electrophoresis (SDS-PAGE) and analyzed by immunoblotting. Primary antibodies against phospho-Erk1 (pT202)/Erk2 (pT185), Erk1, Erk2, NF-κB p65, phospho-NF-κB p65 (pS536), IκBα, phospho-IκBα pS32, β-actin, or GAPDH were applied to detect the corresponding proteins. Horseradish peroxidase (HRP)-conjugated secondary antibodies against mouse, rabbit, or goat IgG were then incubated with the membranes, and proteins were visualized by chemiluminescence according to the manufacturer's instructions. Protein quantification was performed by software.
Total RNAs (including mRNA and miRNA) were extracted from cultured cells or mouse ears with the TRIzol Reagent. For measurement of human galectin-7, IL-6, IL-8, IL-17A, and IFN-γ levels, mRNAs were reverse-transcribed into cDNA by means of the cDNA synthesis kit, and real-time PCR was carried out with specific probes accompanied with primers targeting humangalectin-7, IL-6, and IL-8 according to the manufacturer's instructions.

galectin-7 [3] = experiment: Galectin-7 levels in lung cancer tumors transplanted in NOD SCID mice (IHC, immunoblot); type: in vivo; conditions: NOD SCID mice with A549, PC9, PC9-IR cells, 30 mg/kg daily oral gavage, day 21, vs saline
Method: NOD.CB17-Prkdcscid/JNarl mice obtained from National Laboratory Animal Center (Taiwan) were engrafted 2×10^6 lung cancer cells subcutaneously at the left and right flanks of the mice. After 10 days of tumor growth, mice were treated by oral gavage with 30 mg/kg fluvastatin or lovastatin in saline solution, or saline solution alone as control, once per day for 21 days. The tumor plaques were harvested and each of them was cut into two pieces. One piece was for immunoblot analysis, and the other one was fixed with 10% formalin and embedded into paraffin block for IHC staining. All animal studies were conducted in the experimental animal facilities of Institute of Biomedical Sciences, Academia Sinica, Taipei, Taiwan, in accordance to institutional rules and ethical guidelines for experimental animal care.

S100A7 = S100A7 mRNA expression in HaCaT cells (real-time PCR); type: cell-based, human; conditions: 24 hours, methylprednisolone 10.6 μM, tobramycin 8.6 μM, fluvastatin 9.2 μM, pempidine 13 μM
galectin-7 [4] = experiment: Galectin-7 mRNA in lung cancer cell lines (qPCR); type: cell-based, human; conditions: CL100 and PC9-IR cells, 24 hours; methylprednisolone 10.6 μM, tobramycin 8.6 μM, fluvastatin 9.2 μM, pempidine 13 μM
Method: as §1
Total RNA from each lung cancer cell clone was extracted using TRIzol Reagent (Invitrogen), and cDNA for real-time PCR was generated using the iScript cDNA synthesis kit (Bio-Rad). Quantitative real-time PCR was performed using TaqMan buffer (Roche), and the primers and probes were designed using the Roche Universal Library (UPL). […] For real-time PCR, the CFX Connect Real-Time PCR System (Bio-Rad) was used, and the data were analyzed using CFX Manager software, in which the ΔΔCt method was employed to normalize the data against the endogenous control GAPDH.

miR-146a = miR-146a expression in keratinocytes (real-time PCR); type: cell-based, human; conditions: HaCaT and HEKn cells treated with IL-17A
Method: For miR-146a quantification, total RNA samples were converted to cDNA, and real-time PCR was conducted with specific primers targeting miR-146a. Human GAPDH and U6 snRNA were selected as internal controls for normalization of the levels of mRNAs and miRNAs, respectively. Relative levels of mRNAs and miRNAs were calculated, and fold changes were obtained by the ΔΔCt method and compared with vector-only control cells.

With “epidermal growth factor (EGF): epidermal growth factor, activates EGFR signaling” the galectin-7 expression (galectin-7 [1]; CL25, CL100, PC9 and PC9-IR cells starved overnight, 10 ng/ml EGF) was “transiently upregulated”.

For `C[S+]([O-])c1ccc(-c2nc(-c3ccncc3)c(-c3ccc(F)cc3)[nH]2)cc1` (centres unmarked) [SB203580], the “IL-6 production induced by IL-17A” value (IL-6) was “not blocked” and the “IL-8 production induced by IL-17A” value (IL-8) was “not blocked”.

`CC[C@H](C)C(=O)O[C@H]1C[C@@H](C)C=C2C=C[C@H](C)[C@H](CC[C@@H]3C[C@@H](O)CC(=O)O3)[C@H]21` [lovastatin] was tested, and the galectin-7 expression (galectin-7 [2]) was “induced galectin-7 expression” and the “galectin-7 expression in transplanted tumors” value (galectin-7 [3]) was “increased”.

TNF-α was tested, and the galectin-7 protein expression (galectin-7 [2]; HaCaT cells) was “significantly reduced”, the IL-6 production (IL-6) was “induced” and the IL-8 production (IL-8) was “induced”.

In the case of `CC(O)(CCO)CC(=O)O` (centres unmarked) [mevalonate], the “effect on statin-induced upregulation of galectin-7” value (galectin-7 [1]; PC9-IR cells, 200 μM mevalonate with 10 μM statins, 24 hours) is reported as “reversed” and the “effect on fluvastatin-induced galectin-7 upregulation” value (galectin-7 [1]; PC9-IR cells, 24 hours) is reported as “reversed”.

With `CN1C(C)(C)CCCC1(C)C` [pempidine] the “S100A7 mRNA expression” value (S100A7) was “only fluvastatin”, the “galectin-7 expression (LGLAS7 mRNA)” value (galectin-7 [4]) was “only fluvastatin induced” and the “galectin-7 mRNA and protein expression” value (galectin-7 [2]; HaCaT cells) was “only fluvastatin induced”.

In the case of `COc1cc2ncnc(Nc3ccc(F)c(Cl)c3)c2cc1OCCCN1CCOCC1` [gefitinib], the “galectin-7 level (endogenous)” value (galectin-7 [1]; CL25 and CL100 cells, 10 μM, 24 hours) is reported as “downregulated” and the “level of ectopically overexpressed galectin-7” value (galectin-7 [1]; CL83, CL141 and PC9 cells, 10 μM, 24 hours) is reported as “also downregulated”.

With “IFN-γ: interferon (IFN)-γ, immune stimulus” the galectin-7 protein expression (galectin-7 [2]; HaCaT cells) was “modest effects”, the IL-6 production (IL-6) was “only IL-17A (FIG. 2), TNF-α, and LPS (data not shown) induced” and the IL-8 production (IL-8) was “only IL-17A (FIG. 2), TNF-α, and LPS (data not shown) induced”.

“IL-17A: cytokine known to promote psoriatic inflammation” was tested, and the galectin-7 protein expression (galectin-7 [2]; HEKn cells) was “reduced”, the galectin-7 protein expression (galectin-7 [2]; HaCaT cells) was “reduced” and the IL-6 production (IL-6) was “induced”. The IL-8 production (IL-8) was “induced” and the miR-146a expression (miR-146a) was “induced miR-146a expression”.

With IL-21: immune stimulus the IL-6 production (IL-6) was “only IL-17A (FIG. 2), TNF-α, and LPS (data not shown) induced” and the IL-8 production (IL-8) was “only IL-17A (FIG. 2), TNF-α, and LPS (data not shown) induced”.

In the case of `CC(C)=CCC/C(C)=C/CC/C(C)=C/COP(=O)(O)OP(=O)(O)O` [FPP], the “effect on fluvastatin-induced galectin-7 upregulation” value (galectin-7 [1]; PC9-IR cells, 24 hours) is reported as “blocked”.

With `COc1cccc(-c2cc(=O)c3ccccc3o2)c1N` [PD98059] the “IL-6 production induced by IL-17A” value (IL-6) was “significantly blocked” and the “IL-8 production induced by IL-17A” value (IL-8) was “significantly blocked”.

With `NC[C@H]1O[C@H](O[C@H]2[C@H](O)[C@@H](O[C@H]3O[C@H](CO)[C@@H](O)[C@H](N)[C@H]3O)[C@H](N)C[C@@H]2N)[C@H](N)C[C@@H]1O` [tobramycin] the “S100A7 mRNA expression” value (S100A7) was “only fluvastatin”, the “galectin-7 expression (LGLAS7 mRNA)” value (galectin-7 [4]) was “only fluvastatin induced” and the “galectin-7 mRNA and protein expression” value (galectin-7 [2]; HaCaT cells) was “only fluvastatin induced”.

For `CC(C)c1c(C(=O)Nc2ccccc2)c(-c2ccccc2)c(-c2ccc(F)cc2)n1CC[C@@H](O)C[C@@H](O)CC(=O)O` [atorvastatin], the galectin-7 expression (galectin-7 [2]) was “induced galectin-7 expression”.

With `CC(C)=CCCC(C)=CCCC(C)=CCSc1ccccc1C(=O)O` [FTS, farnesyl thiosalicylic acid] the galectin-7 expression (galectin-7 [1]; PC9-IR cells, 1 μM fluvastatin, FTS, 24 hours) was “increased galectin-7 expression”.

For `CC[C@H](C)C(=O)O[C@H]1CCC=C2C=C[C@H](C)[C@H](CC[C@@H]3C[C@@H](O)CC(=O)O3)[C@H]21` [mevastatin], the galectin-7 expression (galectin-7 [2]) was “induced galectin-7 expression”.

With `S=C(S)N1CCCC1` [PDTC] the “IL-6 production induced by IL-17A” value (IL-6) was “not blocked” and the “IL-8 production induced by IL-17A” value (IL-8) was “not blocked”.

`O=C(O)C[C@H](O)C[C@H](O)/C=C/c1c(C2CC2)nc2ccccc2c1-c1ccc(F)cc1` [pitavastatin] was tested, and the galectin-7 expression (galectin-7 [2]) was “induced galectin-7 expression”.

In the case of `CC(C)=CCC/C(C)=C/CC/C(C)=C/CC/C(C)=C/COP(=O)(O)OP(=O)(O)O` [GGPP], the “effect on fluvastatin-induced galectin-7 upregulation” value (galectin-7 [1]; PC9-IR cells, 24 hours) is reported as “blocked”.
